Source: patent US12036222B2, “Methods of treating cancers overexpressing CARM1 with EZH2 inhibitors and a PARP inhibitor” (The Wistar Institut of Anatomy and Biology, priority 2018, dated 2024)
Entries after “also recorded” stand apart in the source; their conditions may differ.

Assays:
[1] = molecular target: T1, PRC2 subunits EZH2 and SUZ12 interaction (Homo sapiens, UniProt Q15910); assay: Immunoprecipitation of EZH2 and immunoblot for SUZ12; format: cell-based; details: A1847 cells, 10 μM GSK126, 7 days
T1 construct: endogenous in cells; host or cells: A1847 cells (CARM1-high)
Method: A1847 cells were treated with 10 μM GSK126 or vehicle control for 7 days. The cells were subjected to immunoprecipitation (IP) analysis by using an anti-EZH2 antibody. The immunoprecipitated product was examined for EZH2 and SUZ12 expression by immunoblot. An isotype-matched IgG was used as a control.

CARM1-depleted cells = assay: Colony formation assay with CARM1-depleted cells; format: cell-based; details: CARM1-depleted vs normal cells, GSK126 vs DMSO
Method: To confirm the relationship between CARM1 overexpression and sensitivity to EZH2 inhibition, further studies were performed to assess the impact of CARM1 depletion. In FIG. 9, a Western blot of CARM1 and BAF155me2 in CARM1 depleted cells with a control (Actin) is shown. In addition, the results of a colony formation assay (unstained, magnified) with normal and CARM1-depleted cells, in DMSO (control) and treated with GSK126, are shown in FIG. 10. A colony formation assay with normal and CARM1-depleted cells, in DMSO (control) and after treatment with GSK126 is shown in FIG. 11, with the results quantified in FIG. 12. Finally, FIG. 13 illustrates the results of treatment of CARM1 depleted cells with GSK126.
(§1) 500 to 5,000 cell were plated into a 24 well tissue culture plate and treated with the indicated compounds. Medium was changed every three days with appropriate drug doses for 12 days or until control wells became confluent. Colonies were washed twice with PBS and fixed with 10% methanol and 10% acetic acid in distilled water. Fixed colonies were stained with 0.005% crystal violet. Integrated density was measured using NIH ImageJ software.

[2] = clinical trials for hematopoietic malignancies; cited from earlier work
[3] = test system: tumors formed by CARM1 knockout A1847 cells; assay: Subcutaneous xenograft model, CARM1 knockout A1847 cells; format: in vivo, NSG mice; details: 50 mg/kg daily i.p.
Method: The protocols were approved by the Institutional Animal Care and Use Committee (IACUC). 5×10^6 control A1847 or A1847 CARM1 knockout cells were unilaterally injected subcutaneously into 6-8-week old female immunocompromised NSG mice (n=5 per group). One week after injection the mice were randomized and treated with vehicle control (20% captisol) or GSK126 (50 mg/kg daily). Tumor size was measured every 3 days for 3 weeks. At end of the experiments, tumors were surgically dissected and tumor burden was calculated based on tumor weight.
EZH2 inhibitors, such as GSK126, are used safely in clinical trials for hematopoietic malignancies (Ribrag et al. Eur J Cancer (2014) 50:197). To determine the effects of EZH2 inhibition in vivo on the growth of CARM1-expressing ovarian tumors, two xenograft models were utilized. In the subcutaneous xenograft models, the injected CARM1-expressing A1847 cells were first allowed to grow for one week to establish the tumors. Mice were then randomized and treated daily with vehicle control or GSK126 (50 mg/kg) by intraperitioneal (i.p.) injection as reported (see, e.g., Bitler et al. Nature Medicine (2015) 21:231-8 and McCabe et al. Nature (2012) 492:108-12). […] To more closely mimic the tumor microenvironment, A1847 cells were orthotopically transplanted into the bursa covering the ovary of immunocompromised NSG mice. […]

HOSE or FTE cells = assay: Colony formation assay in normal HOSE and FTE cells; format: cell-based, human; details: 10 μM GSK126, colony formation
Method: FIG. 33 illustrates relative growth of the indicated HOSE, FTE, and EOC cancer cell lines with high or low CARM1 expression treated with 10 μM GSK126 or vehicle in a colony formation assay as determined by NIH Image J quantification.
as §1

TIMP3 promoter = assay: ChIP-qPCR at TIMP3 promoter; format: cell-based, human; details: A1847 cells, 10 μM GSK126
Method: FIGS. 62 to 65 illustrate the results of a ChIP analysis in parental control and CARM1 knockout A1847 cells treated with 10 μM GSK126 or vehicle controls. The cells were subjected to ChIP analysis using anti-EZH2 (FIG. 62), anti-H3K27Me3 (FIG. 63), anti-BAF155 (FIG. 64), or anti-RNA Pol II (FIG. 65) antibodies. An isotype-matched IgG was used as a negative control. ChIP products were subjected to qPCR analysis using primers specific for the promoter regions of the human TIMP3 genes. Mean of three independent experiments with SEM.* p<0.001 compared with controls.
ChIP was performed as described in Tu et al. Developmental Cell(2011) 21:1077-91. The following antibodies were used to perform ChIP: anti-H3K27Me3 (Cell Signaling, Cat. No: 9733), anti-BAF155 (Santa Cruz, Cat. No: sc-9746), anti-RNA polymerase II (Santa Cruz, Cat. No: sc-899) or anti-EZH2 (Cell Signaling, Cat. No: 5246). An isotype matched IgG was used as a negative control. ChIP DNA was analyzed by quantitative PCR against the promoter of the indicated genes using the following primers: DAB2 Forward: 5′-[…]-3′ (SEQ ID NO: 10) and DAB2 Reverse: 5′-[…]-3′ (SEQ ID NO: 11); DLC1 Forward: 5′-[…]-3′ (SEQ ID NO: 12) and DLC1 Reverse: 5′-[…]-3′ (SEQ ID NO: 13); NOXA Forward: 5′-[…]-3′ (SEQ ID NO: 14) and NOXA Reverse: 5′-[…]-3′ (SEQ ID NO: 15); TIMP3 Forward: 5′-[…]-3′ (SEQ ID NO: 16) and TIMP3 Reverse: 5′-[…]-3′ (SEQ ID NO: 17).

T1 sequence (Q15910 whole entry): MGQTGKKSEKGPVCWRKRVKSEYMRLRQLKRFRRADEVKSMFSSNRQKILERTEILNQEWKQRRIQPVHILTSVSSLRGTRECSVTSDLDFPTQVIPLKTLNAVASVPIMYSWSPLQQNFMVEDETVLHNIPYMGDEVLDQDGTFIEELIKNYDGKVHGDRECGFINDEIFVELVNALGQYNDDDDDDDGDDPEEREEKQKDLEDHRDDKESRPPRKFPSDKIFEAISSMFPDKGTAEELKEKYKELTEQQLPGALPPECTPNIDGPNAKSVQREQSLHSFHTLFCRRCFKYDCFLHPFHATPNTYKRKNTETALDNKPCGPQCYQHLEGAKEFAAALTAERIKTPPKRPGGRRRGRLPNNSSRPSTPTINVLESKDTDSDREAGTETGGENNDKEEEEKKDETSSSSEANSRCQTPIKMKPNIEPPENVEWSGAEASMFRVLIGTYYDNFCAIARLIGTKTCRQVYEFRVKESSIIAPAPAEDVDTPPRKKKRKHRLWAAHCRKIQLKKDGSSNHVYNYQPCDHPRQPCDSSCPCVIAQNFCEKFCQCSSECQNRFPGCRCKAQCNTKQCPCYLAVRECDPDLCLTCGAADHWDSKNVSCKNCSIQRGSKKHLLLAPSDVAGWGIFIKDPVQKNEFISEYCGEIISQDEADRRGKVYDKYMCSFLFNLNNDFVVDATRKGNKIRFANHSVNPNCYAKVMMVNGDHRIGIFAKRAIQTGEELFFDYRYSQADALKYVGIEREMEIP
T1 sequence (Q15022 whole entry partner): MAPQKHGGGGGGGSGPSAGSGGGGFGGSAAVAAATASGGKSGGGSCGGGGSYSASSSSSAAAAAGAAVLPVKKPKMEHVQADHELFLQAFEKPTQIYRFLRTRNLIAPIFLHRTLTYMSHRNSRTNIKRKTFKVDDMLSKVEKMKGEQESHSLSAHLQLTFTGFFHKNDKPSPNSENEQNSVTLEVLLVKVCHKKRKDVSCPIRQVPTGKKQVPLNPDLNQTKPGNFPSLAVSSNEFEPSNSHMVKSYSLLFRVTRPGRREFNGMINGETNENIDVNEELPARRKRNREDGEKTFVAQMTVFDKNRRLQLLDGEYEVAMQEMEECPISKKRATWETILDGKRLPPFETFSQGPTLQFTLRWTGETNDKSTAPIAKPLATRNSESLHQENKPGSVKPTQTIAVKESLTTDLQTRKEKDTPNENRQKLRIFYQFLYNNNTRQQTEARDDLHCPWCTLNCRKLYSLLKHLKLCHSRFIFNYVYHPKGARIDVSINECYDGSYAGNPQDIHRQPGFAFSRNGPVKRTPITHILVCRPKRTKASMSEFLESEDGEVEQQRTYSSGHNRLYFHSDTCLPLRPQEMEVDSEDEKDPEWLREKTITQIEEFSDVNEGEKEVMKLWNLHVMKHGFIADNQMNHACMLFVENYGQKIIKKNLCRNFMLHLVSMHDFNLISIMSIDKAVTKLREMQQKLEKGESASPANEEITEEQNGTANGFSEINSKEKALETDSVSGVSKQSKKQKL
T1 sequence (O75530 whole entry partner): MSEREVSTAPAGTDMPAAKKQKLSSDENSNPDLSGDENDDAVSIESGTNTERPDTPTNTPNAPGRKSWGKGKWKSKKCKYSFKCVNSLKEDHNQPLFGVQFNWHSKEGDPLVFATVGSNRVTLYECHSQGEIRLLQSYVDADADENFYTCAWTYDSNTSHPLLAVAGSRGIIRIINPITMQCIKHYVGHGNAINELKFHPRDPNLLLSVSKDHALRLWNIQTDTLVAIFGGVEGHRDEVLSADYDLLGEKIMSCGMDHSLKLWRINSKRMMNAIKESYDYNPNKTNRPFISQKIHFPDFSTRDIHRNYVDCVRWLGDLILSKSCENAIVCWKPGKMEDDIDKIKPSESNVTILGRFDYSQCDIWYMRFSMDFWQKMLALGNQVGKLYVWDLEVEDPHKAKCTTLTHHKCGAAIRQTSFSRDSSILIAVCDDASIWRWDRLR

Compound: CC[C@H](C)n1cc(C)c2c(C(=O)NCc3c(C)cc(C)[nH]c3=O)cc(-c3ccc(N4CCNCC4)nc3)cc21 [GSK126, (S)-1-(sec-butyl)-N-((4,6-dimethyl-2-oxo-1,2-dihydropyridin-3-yl)methyl)-3-methyl-6-(6-(piperazin-1-yl)pyridin-3-yl)-1H-indole-4-carboxamide]
- interaction between PRC2 subunits EZH2 and SUZ12 [1]: did not weaken the interaction
- sensitivity after CARM1 depletion (CARM1-depleted cells): abrogating the sensitivity
- safety in clinical trials [2]: used safely; also recorded: proven safe; also recorded: well-tolerated with limited toxicity
- growth of tumors formed by CARM1 knockout A1847 cells [3]: failed to inhibit the growth
- growth of HOSE or FTE cells (HOSE or FTE cells): did not affect the growth; also recorded: didn't affect the growth
- association of BAF155 and Pol II with the TIMP3 promoter (TIMP3 promoter): CARM1 KO but not EZH2 inhibitor GSK126 treatment decreased the association
